Experimental data from article PMC11541501, “Development of a Candidate ^11C‑Labeled Selective Phosphodiesterase 1 Radioligand for Positron Emission Tomography” (ACS Omega, 2024).
Read-outs that look alike come from different tables or passages of the source.

Columns and labels:
[1] = Whole-body biodistribution study in mice; type: in vivo, ddY mice
Experimental: To investigate the distribution of [^11C]-PF-04822163 in the whole body, we conducted a biodistribution study in ddY mice (Figure ). The radioactivity levels in major organs were assessed at 1, 5, 15, 30, and 60 min after the administration of [^11C]-PF-04822163. […] After the initial uptake, radioactivity accumulations decreased in almost all organs, while the uptake in the small intestine increased, and liver uptake remained at a high level (5% ID/g at 60 min), indicating a hepatobiliary elimination route.
The biodistribution experiment was performed according to previous reports. , In brief, [^11C]-PF-04822163 (4.44 MBq/0.1 mL) was injected (i.v.) into ddY mice via the tail vein. After the administration of [^11C]-PF-04822163, the mice were sacrificed at different time points (1, 5, 15, 30, and 60 min), and tissues of interest were collected. The tissues were weighted and measured by a gamma counter.

PDE1 [2] = test: Dynamic PET imaging in rat brains; type: in vivo, SD rats
Experimental: Encouraged by the results of in vitro evaluation by autoradiography studies with the ligand [^11C]-PF-04822163, dynamic PET imaging studies were conducted with [^11C]-PF-04822163 on SD rats. […] Additionally, an evident washout was observed after initial high uptakes in all brain regions. To assess the in vivo binding specificity of [^11C]-PF-04822163 to PDE1, we carried out blocking studies with the pretreatment of unlabeled PF-04822163 (1 mg/kg, 10 min before the administration of [^11C]-PF-04822163). […] These findings indicate that further optimization of the pharmacological and ADME properties is warranted to obtain a suitable probe for in vivo imaging of PDE1.
4 PET studies of [^11C]-PF-04822163 in rat brains. […]
PET imaging was conducted as previously reported. , An Inveon PET scanner (Siemens) was used for dynamic PET imaging studies, [^11C]-PF-04822163 (ca. 17.5 MBq/1.5 mL) was intravenously injected via the tail vein via a preinstalled catheter, and dynamic PET images were acquired in a 3D mode for a period of 60 min. […] The dynamic PET images were reconstructed using ASIPro VW software, and volumes of interest were calculated.

[3] = Radiometabolic analysis in rat brain and plasma; type: in vivo, SD rats; conditions: 15 min postadministration
Experimental: To gain insight into the in vivo stability of [^11C]-PF-04822163, we performed radiometabolic analysis in the brain and plasma of SD rats (Figure ). At 15 min postadministration of [^11C]-PF-04822163, 95% of [^11C]-PF-04822163 remained unchanged in the brain, while in plasma, 26% remained unchanged.
The radiometabolic analysis was performed following a previous report. After the intravenous injection of [^11C]-PF-04822163, SD rats were sacrificed at 15 min postinjection. Plasma samples were quenched with acetonitrile and centrifuged, and the supernatant was assessed by radio-HPLC. The brain was collected and homogenized and quenched with acetonitrile, and the resulting homogenate was centrifuged. The supernatant was analyzed by radio-HPLC.

PDE1 [4] = conditions: cited from earlier work; for IC50: introduction, literature value
PDE1A = PDE1A (Homo sapiens, UniProt P54750); test: PDE1A inhibition; type: biochemical
[5] = tested on: 65 major CNS targets, including ion channels, transporters, and GPCR enzymes; test: Off-target binding screen against 65 major CNS targets (NIMH PDSP); conditions: 10 μM testing concentration; except 5-HT2B and 5-HT6
From the text: (§1) Furthermore, we investigated the off-target binding of PF-04822163 in vitro against 65 major CNS targets, including ion channels, transporters, and GPCR enzymes (Figure S2 in the Supporting Information, supported by the NIMH Psychoactive Drug Screening Program (PDSP)).
(§2) % Inhibition of Target Activity
(§3) Figure S2. Off-target pharmacological evaluation of compound PF-04822163 against major CNS targets, including common GPCRs, enzymes, ion channels, and transporters: initial screening at a concentration of 10 μM (supported by the NIMH PDSP). All data are […]
(§4) Figure S3. The time-activity-curves (0-60 min) of PET studies with [11C]PF-04822163 in rat brains under baseline and blocking conditions. All data were referred to as mean ± SEM,

PDE1B [6] = molecular target: T1, PDE1B (Homo sapiens, UniProt Q01064); conditions: introduction, literature value; ref Humphrey et al., 2014; cited from earlier work
5-HT2B = molecular target: T2, 5-HT2B (Homo sapiens, UniProt P41595); test: Off-target binding, 5-HT2B (NIMH PDSP)
T2 construct: NIMH Psychoactive Drug Screening Program (PDSP)
From the text: as §1, §2, §3, §4

[7] = Log D by shake flask method (n-octanol/PBS); type: physicochemical; conditions: measured with [11C]PF-04822163
Experimental: as §1
The measurement of log D was performed as previously reported. In brief, [^11C]-PF-04822163, n-octanol (3 mL), and PBS (1×, 3 mL) were added to a centrifuge tube, and vortexing was conducted for 3 min followed by centrifugation (∼14,000 rpm) for 5 min. PBS (around 500 μL) and n-octanol (around 50 μL) were then weighted and measured by a gamma counter.

PDE1C = PDE1C (Homo sapiens, UniProt Q14123); test: PDE1C inhibition; type: biochemical
PDE10A = PDE10A (Homo sapiens, UniProt Q9Y233); test: Potency toward other PDEs (PDE10A); type: biochemical
5-HT6 = molecular target: T3, 5-HT6 (Homo sapiens, UniProt P50406); test: Off-target binding, 5-HT6 (NIMH PDSP)
T3 construct: NIMH Psychoactive Drug Screening Program (PDSP)
From the text: as §1, §2, §3, §4

PDE1B [8] = test: In vitro autoradiography with [11C]PF-04822163 on rat brain sections, blocking; type: binding, Sprague–Dawley (SD) rat; conditions: blocker 10 μM, [11C]PF-04822163 autoradiography
Experimental: With the ligand [^11C]-PF-04822163 in hand, in vitro autoradiography studies were conducted on Sprague–Dawley (SD) rat brain sections to validate its binding specificity toward PDE1. […] In the autoradiography studies on the coronal brain sections, high radioactivity levels were found in the caudate putamen, nucleus accumbens, and olfactory tubercle (Figure a,c).
3 In vitro autoradiography studies of [^11C]-PF-04822163 on rat brain sections. (a) Representative images of autoradiography studies with [^11C]-PF-04822163 under baseline and blocking conditions (PF-04822163 or PF-04827736, 10 μM), (b) quantification of autoradiography studies of [^11C]-PF-04822163 on sagittal rat brain sections, and (c) quantification of autoradiography studies of [^11C]-PF-04822163 on coronal rat brain sections. All data are means ± SD, n ≥ 8. Statistical analysis was conducted with Student’s two-tailed t tests, and asterisks indicated the statistical significance as follows: *p < 0.05, **p ≤ 0.01, and ***p ≤ 0.001.
Autoradiography studies were performed according to previous reports. , In brief, the rat brain sections (20 μm) were preincubated with a Tris–HCl buffer (50 mM) at room temperature for 20 min followed by incubation with [^11C]-PF-04822163 (168 Bq/mL). […] The radioactivity values were normalized as a percentage of the radioactivity relative to the control.

PDE1B [9] = molecular target: T1, PDE1B; test: PDE1B inhibition; type: biochemical

T1 sequence (Q01064 whole entry, species assumed): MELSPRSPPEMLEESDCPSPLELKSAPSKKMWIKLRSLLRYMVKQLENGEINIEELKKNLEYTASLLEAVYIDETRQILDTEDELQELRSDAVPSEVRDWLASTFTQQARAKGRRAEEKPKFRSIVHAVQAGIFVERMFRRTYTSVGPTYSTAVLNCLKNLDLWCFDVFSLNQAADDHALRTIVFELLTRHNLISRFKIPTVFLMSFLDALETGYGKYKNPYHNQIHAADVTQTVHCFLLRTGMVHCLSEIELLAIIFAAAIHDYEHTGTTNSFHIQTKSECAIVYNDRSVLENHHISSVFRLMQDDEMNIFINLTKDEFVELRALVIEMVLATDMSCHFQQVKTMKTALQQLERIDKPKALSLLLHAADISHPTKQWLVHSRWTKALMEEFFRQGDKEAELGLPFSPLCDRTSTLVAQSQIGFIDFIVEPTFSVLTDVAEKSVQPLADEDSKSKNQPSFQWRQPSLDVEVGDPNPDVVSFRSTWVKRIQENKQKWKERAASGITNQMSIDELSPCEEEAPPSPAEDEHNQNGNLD
PDE1C, sequence (Q14123 whole entry, species assumed): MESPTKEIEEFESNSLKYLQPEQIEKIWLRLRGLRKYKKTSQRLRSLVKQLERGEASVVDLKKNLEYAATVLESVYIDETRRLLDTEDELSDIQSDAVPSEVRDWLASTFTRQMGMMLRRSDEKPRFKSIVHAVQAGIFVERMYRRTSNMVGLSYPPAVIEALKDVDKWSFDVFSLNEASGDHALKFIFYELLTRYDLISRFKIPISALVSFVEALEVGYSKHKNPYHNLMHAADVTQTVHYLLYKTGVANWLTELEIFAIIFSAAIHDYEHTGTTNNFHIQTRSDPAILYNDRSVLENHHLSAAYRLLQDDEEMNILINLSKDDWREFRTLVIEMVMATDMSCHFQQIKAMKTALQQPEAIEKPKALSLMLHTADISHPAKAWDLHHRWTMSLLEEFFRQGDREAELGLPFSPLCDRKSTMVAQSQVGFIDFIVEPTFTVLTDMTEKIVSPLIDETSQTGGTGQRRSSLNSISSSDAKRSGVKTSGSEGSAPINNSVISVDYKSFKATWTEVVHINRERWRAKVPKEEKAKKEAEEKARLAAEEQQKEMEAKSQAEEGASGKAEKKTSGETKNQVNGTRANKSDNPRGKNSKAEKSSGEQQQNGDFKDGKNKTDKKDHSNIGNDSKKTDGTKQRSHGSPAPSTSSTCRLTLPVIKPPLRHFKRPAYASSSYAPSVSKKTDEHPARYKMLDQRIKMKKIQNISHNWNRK
PDE1A, sequence (P54750 whole entry, species assumed): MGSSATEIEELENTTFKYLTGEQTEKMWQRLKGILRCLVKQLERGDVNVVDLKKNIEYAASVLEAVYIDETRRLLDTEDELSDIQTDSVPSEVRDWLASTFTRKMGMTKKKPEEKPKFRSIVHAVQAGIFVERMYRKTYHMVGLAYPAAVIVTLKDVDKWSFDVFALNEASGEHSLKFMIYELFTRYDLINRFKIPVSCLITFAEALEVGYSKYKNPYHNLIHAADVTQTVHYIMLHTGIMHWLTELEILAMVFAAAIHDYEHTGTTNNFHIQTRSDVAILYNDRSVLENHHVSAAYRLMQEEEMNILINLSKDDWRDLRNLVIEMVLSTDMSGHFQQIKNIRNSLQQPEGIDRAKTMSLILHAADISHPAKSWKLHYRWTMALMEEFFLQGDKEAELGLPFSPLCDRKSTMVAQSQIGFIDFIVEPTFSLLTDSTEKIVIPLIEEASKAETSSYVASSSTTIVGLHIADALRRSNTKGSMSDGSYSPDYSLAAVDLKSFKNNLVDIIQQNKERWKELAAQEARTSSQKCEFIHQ
T3 sequence (P50406 whole entry): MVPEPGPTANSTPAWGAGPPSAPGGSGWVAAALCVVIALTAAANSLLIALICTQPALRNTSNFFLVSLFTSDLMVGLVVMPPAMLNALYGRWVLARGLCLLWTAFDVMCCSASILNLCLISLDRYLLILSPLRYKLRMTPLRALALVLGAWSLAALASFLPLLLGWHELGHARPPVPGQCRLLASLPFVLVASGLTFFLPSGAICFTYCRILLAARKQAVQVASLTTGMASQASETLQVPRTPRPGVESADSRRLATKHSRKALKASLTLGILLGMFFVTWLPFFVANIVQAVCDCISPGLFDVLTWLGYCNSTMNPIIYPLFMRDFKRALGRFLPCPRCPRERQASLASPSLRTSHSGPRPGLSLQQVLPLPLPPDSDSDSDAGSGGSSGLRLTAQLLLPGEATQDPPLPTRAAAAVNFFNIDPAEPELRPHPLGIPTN
T2 sequence (P41595 whole entry): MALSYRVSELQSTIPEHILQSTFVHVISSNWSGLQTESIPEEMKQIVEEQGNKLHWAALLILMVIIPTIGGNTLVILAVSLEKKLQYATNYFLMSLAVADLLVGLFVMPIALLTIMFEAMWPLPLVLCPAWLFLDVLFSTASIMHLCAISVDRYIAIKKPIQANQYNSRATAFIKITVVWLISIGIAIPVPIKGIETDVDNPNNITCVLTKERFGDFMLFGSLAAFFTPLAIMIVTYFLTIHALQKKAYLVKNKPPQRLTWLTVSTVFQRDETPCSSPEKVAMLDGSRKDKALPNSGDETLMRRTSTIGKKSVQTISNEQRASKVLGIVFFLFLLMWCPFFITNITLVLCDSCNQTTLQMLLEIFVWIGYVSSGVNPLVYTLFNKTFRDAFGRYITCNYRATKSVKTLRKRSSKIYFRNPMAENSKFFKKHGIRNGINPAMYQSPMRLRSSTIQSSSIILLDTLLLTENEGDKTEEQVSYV
PDE10A, sequence (Q9Y233 whole entry, species assumed): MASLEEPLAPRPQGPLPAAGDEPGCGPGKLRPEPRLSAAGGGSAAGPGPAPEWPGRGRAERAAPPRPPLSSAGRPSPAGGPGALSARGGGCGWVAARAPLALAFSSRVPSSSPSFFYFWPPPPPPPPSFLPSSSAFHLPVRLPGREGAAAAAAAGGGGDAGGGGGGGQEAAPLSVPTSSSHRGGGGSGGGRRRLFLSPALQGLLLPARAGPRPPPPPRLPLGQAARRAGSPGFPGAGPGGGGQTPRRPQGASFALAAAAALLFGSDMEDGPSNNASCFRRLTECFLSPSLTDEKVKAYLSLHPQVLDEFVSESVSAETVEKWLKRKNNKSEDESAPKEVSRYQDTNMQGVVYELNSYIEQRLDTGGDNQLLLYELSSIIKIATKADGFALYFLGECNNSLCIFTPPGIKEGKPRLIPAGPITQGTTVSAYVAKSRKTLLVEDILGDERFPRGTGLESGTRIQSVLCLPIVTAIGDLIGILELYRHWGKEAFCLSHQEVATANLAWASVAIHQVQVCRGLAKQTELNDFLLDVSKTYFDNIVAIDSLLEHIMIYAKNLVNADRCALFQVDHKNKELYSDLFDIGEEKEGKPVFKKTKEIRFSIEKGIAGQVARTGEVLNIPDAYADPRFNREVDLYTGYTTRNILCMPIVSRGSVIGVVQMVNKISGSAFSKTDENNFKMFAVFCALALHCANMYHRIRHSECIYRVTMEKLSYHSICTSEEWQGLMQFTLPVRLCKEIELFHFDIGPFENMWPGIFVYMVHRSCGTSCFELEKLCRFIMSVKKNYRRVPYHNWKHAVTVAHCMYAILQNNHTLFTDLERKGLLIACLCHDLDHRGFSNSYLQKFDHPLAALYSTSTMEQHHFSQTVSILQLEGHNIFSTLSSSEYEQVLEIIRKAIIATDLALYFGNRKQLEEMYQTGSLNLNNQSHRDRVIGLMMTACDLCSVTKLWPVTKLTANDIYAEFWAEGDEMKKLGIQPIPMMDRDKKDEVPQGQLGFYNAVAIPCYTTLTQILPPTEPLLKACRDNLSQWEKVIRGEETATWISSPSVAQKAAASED

COc1c(O[11CH3])ccc2c([C@H]3CCc4ccc(Cl)cc43)ncnc12 [[^11C]PF-04822163]
uptake ([1]; at 1 and 5 min, heart, lung, liver, kidney, adrenal, and brain): ≥ 3 % ID/g | liver uptake ([1]; at 60 min): 5 % ID/g | SUVmax (PDE1 [2]; striatum, 3 min post-tracer administration, baseline): 2.0 | remained unchanged in the brain ([3]; rat brain): 95% | remained unchanged in plasma ([3]; rat plasma): 26%

CN1C(=O)c2c(nn(Cc3ccc(-c4cccc(F)n4)cc3)c2Nc2ccccc2)N2C1=N[C@@H]1CCC[C@@H]12 [ITI-214]
selectivity over other PDEs (PDE1 [4]; PDE1 over other PDEs, ref Li et al., 2016): > 1000 fold | IC50 (PDE1 [4]; ref Li et al., 2016): 0.058 nM

COc1ccc2c([C@H]3CCc4ccc(Cl)cc43)ncnc2c1OC [PF-04822163, (S)-4-(6-Chloro-2,3-dihydro-1H-inden-1-yl)-7,8-dimethoxyquinazoline]
IC50 (PDE1A): 2 nM | selectivity over other PDEs for PDE1A (PDE1A): 126 fold | reduction in uptake (AUC) in different brain regions (PDE1 [2]; pretreatment with unlabeled blocker 1 mg/kg, 10 min before [11C]PF-04822163, AUC 0–20 min): 7–12% | off-target binding (>50% inhibition) [5]: no significant off-target binding | selectivity over other PDEs (PDE1B [6]): > 100 fold | Ki (5-HT2B): 262 nM | melting point: 122 to 124 °C | logD [7]: 2.53 | IC50 (PDE1C): 7 nM | selectivity over other PDEs for PDE1C (PDE1C): 36 fold | IC50 (PDE10A): 252 nM | Ki (5-HT6): 4860 nM | decrease in radioactivity signal in PDE1B-rich regions (PDE1B [8]): 47–71% | IC50 (PDE1B [9]): 2.4 nM | selectivity over other PDEs for PDE1B (PDE1B [9]): 105 fold

CCOC(=O)C1=C[C@]2(CC)CCCN3CCc4c(n1c1ccccc41)[C@@H]32 [Vinpocetine]
IC50 (PDE1 [4]): 30000 nM
